This note sets out measurements from patent US8530622B2, “Proteasome-activating anti-aging peptides and compositions containing same” (ISP Investments Inc., priority 2009, dated 2013).

The subject of assay [1] is volunteers. Kind of assay: Clinical test: wrinkle and fine line measurement by QUANTIRIDE
Format: in vivo, human. The arrangement: Depth of wrinkles, Measurement / Number of wrinkles, Measurement: unit not given here. Conditions: D 23-D 0, 2 mg/cm^2 twice a day, 12 volunteers. As for the experimental part:
12 volunteers aged from 29 to 56 years applied either a placebo or the peptidic active principle of sequence ID No. 1 twice a day, morning and night, at a dose of 2 mg/cm^2 for 24 days. A clinical evaluation of the results enabled several wrinkle and fine line parameters to be measured.
The wrinkle and fine line measurement was carried out by QUANTIRIDE, which is an evaluation method that enables the number, length and depth of wrinkles to be measured by making a replica of the skin before and after treatment by using a silicone polymer.

Assay [2] has as its target T1, 20S proteasome (Homo sapiens, UniProt P28072+P28074+Q99436).
T1 construct: After incubation of the cellular lysate with the synthetic substrate specific for the activity studied; endogenous in cells; host or cells: experimentally aged normal human keratinocytes (NHK) from human skin biopsies; activity measured in the cell lysate
Put plainly: Enzymatic activity of 20S proteasome on aged keratinocytes maintained in culture (AMC-labeled substrates). It is filed as cell-based. Conditions: 15 days culture, 1% peptide. Here is the method:
(§1) Normal Human Keratinocyte (NHK), cells are isolated from human skin biopsies. These cells are maintained in culture in a special keratinocyte-SFM medium (Invitrogen) at 37° C. under a humidified atmosphere of 5% CO2. Aged NHK cells are obtained by performing a series of repeated sub-cultures. Briefly the cells are seeded in 75 cm^2 flasks, at low density and cultured from 5 to 10 days between 2 passages. The cells are treated or not treated by the active principle, by adding the active principle directly into the culture medium 3 times per week. The cells are then maintained under these conditions for 45 days.
Experimentally aged keratinocytes maintained in culture for 15 days are treated with 1% of peptide SEQ ID No. 1. The enzymatic activities of 20S proteasome are then studied. In fact, 20S proteasome is the subunit responsible for enzymatic hydrolysis. Three enzymatic activities may be studied: Trypsin-like, chymotrypsin-like and peptidylglutamyl-peptide hydrolase (PGPH) activity. We are proposing to study these activities by a specific enzymatic assay of each activity.
The aged keratinocytes are maintained in culture for 15 days. The cell treatment is carried out by adding a solution at 1% of peptide SEQ ID No. 1 directly into the medium, renewed 3 times per week for the time of the experiment.
The assay of each activity was carried out by utilizing specific substrates labeled by a fluorescent compound 7-amido-4-methylcoumarin (AMC). After cleavage, the AMC excitation wavelength is 350 nm, the fluorescence is read at 440 nm. The fluorescence intensity is proportional to the quantity of fluorochrome obtained and consequently, this quantity is proportional to the quantity of hydrolyzed substrate.
The synthetic peptide Boc-Leu-Arg-Arg-AMC is specific for trypsin activity. […]
The cells are detached from the support in an extraction buffer. […] After incubation of the cellular lysate with the synthetic substrate specific for the activity studied, fluorescence is read with the Synergy spectrophotometer (BIOTEK, Vermont, USA) at 440 nm.

Assay [3] has as its system experimentally aged keratinocytes. Kind of assay: Antiaging effect: beta-galactosidase (X-gal) labeling of experimentally aged keratinocytes in culture. Format: cell-based, human. Conditions: keratinocytes aged 20 days, 1% peptide 3 times per week. Here is the method: as §1
A study of the antiaging effect of the active principle was carried out by evaluating the expression of the beta-galactosidase protein on experimentally aged keratinocytes in culture. In fact, beta-galactosidase activity is known to be present in senescent cells while galactosidase activity is not found in pre-senescent, quiescent or immortal cells.
Keratinocytes experimentally aged in 8-well labteck are cultured and maintained for 20 days in the presence or not of 1% peptide of SEQ ID No. 1. The treatment is carried out 3 times per week by direct addition into the medium.
Untreated cells are maintained in culture for the same experiment time and will be used as controls. […]

Ends that are not written are not given here.

Asp-Cys-Arg-NH2 [SEQ ID No. 1]: in assay [1], the “Depth of wrinkles, Measurement” value was −6.5557; the “Length of wrinkles, Measurement” value is on record as −0.104 mm; the “Number of wrinkles, Measurement” value was −9.5833. Further, in assay [1] (listed as Active peptide), the “Depth of wrinkles, % of volunteers with improvement” value was determined as 75%; the “Length of wrinkles, % of volunteers with improvement” value was found to be 83.3%; the “Number of wrinkles, % of volunteers with improvement” value was 75%. Moreover, in assay [1] (listed as active principle), the “Depth of wrinkles, % of volunteers with improvement” value is recorded as 75%; the “Length of wrinkles, % of volunteers with improvement” value was determined as 83.3%; the “Number of wrinkles, % of volunteers with improvement” value is given as 75%. For the same substance, the “trypsin-like activity of 20S proteasome, increase” value in assay [2] (substrate Boc-Leu-Arg-Arg-AMC) is recorded as 155.3%. Moreover, the “chymotrypsin-like activity of 20S proteasome, increase” value in assay [2] (substrate Suc-Leu-Leu-Val-Try-AMC) was determined as 130%. Further, in assay [2] (substrate Z-Leu-Leu-Glu-AMC), the “peptidylglutamyl-peptide hydrolase activity of 20S proteasome, increase” value stood at 144.6%. Also, the “beta-galactosidase activity in treated cells compared to untreated cells” value in assay [3] is given as “strongly reduced”.
